Assay results reported in US20240210412A1, “SULFONYL-TRIAZOLE COMPOUNDS USEFUL AS LIGANDS AND INHIBITORS OF PROSTAGLANDIN REDUCTASE 2” (University of Virginia Patent Foundation, priority 2021, published 2024).

Key:
Assay in all cases: SILAC LC-MS ABPP
Format in all cases: cell-based
Settings in all cases: 25 μM 2 h, live DM93 cells
O94925 = molecular target: T1, O94925 (Homo sapiens, UniProt O94925)
T1 construct: endogenous in cells; host or cells: DM93 cells (SILAC)
Procedure, shortened: (§1)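 Ligand engagement is measured as loss of HHS-475 probe labelling at specific tyrosines. SILAC DM93 melanoma cells were treated in situ (25 μM ligand vs DMSO, 2 h, 37 °C; then 100 μM probe, 2 h), and modified peptides were quantified by high-resolution LC-MS/MS after desthiobiotin tagging and avidin capture.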

P28482 = molecular target: T2, P28482 (Homo sapiens, UniProt P28482)
T2 construct: endogenous in cells; host or cells: DM93 (SILAC)
Procedure, shortened: as §1

Q9Y5K6 = molecular target: T3, Q9Y5K6 (Homo sapiens, UniProt Q9Y5K6)
T3 construct: endogenous in cells; host or cells: DM93 cells (SILAC)
Procedure, shortened: as §1

Q9BXS6 = molecular target: T4, Q9BXS6 (Homo sapiens, UniProt Q9BXS6)
T4 construct: endogenous in cells; host or cells: DM93 cells (SILAC), treated live; soluble proteome analysed
Procedure, shortened: as §1

Q8NBF2 = molecular target: T5, Q8NBF2 (Homo sapiens, UniProt Q8NBF2)
T5 construct: endogenous in cells; host or cells: DM93 cells (SILAC), live-cell treatment
Procedure, shortened: as §1

Q96C86 = molecular target: T6, Q96C86 (Homo sapiens, UniProt Q96C86)
T6 construct: endogenous in cells; host or cells: DM93 cells (SILAC), treated live; soluble proteome analysed
Procedure, shortened: as §1

P25789 = molecular target: T7, P25789 (Homo sapiens, UniProt P25789)
T7 construct: endogenous in cells; host or cells: DM93 (SILAC)
Procedure, shortened: as §1

P62277 = molecular target: T8, P62277 (Homo sapiens, UniProt P62277)
T8 construct: performing SuTEx compound screening directly in cells; endogenous in cells; host or cells: DM93 cells (SILAC)
Procedure, shortened: as §1

O43660 = molecular target: T9, O43660 (Homo sapiens, UniProt O43660)
T9 construct: endogenous in cells; host or cells: DM93
Procedure, shortened: as §1

O75521 = molecular target: T10, O75521 (Homo sapiens, UniProt O75521)
T10 construct: endogenous in cells; host or cells: DM93 cells (SILAC)
Procedure, shortened: as §1

P19174 = molecular target: T11, P19174 (Homo sapiens, UniProt P19174)
T11 construct: endogenous in cells; host or cells: DM93 (SILAC)
Procedure, shortened: as §1

P18206 = molecular target: T12, P18206 (Homo sapiens, UniProt P18206)
T12 construct: Probe-modified proteins from the soluble fraction were conjugated to a desthiobiotin-azide tag; endogenous in cells; host or cells: DM93 (SILAC)
Procedure, shortened: as §1

Q12965 = molecular target: T13, Q12965 (Homo sapiens, UniProt Q12965)
T13 construct: performing SuTEx compound screening directly in cells; endogenous in cells; host or cells: DM93 cells (SILAC)
Procedure, shortened: as §1

P20618 = molecular target: T14, P20618 (Homo sapiens, UniProt P20618)
T14 construct: endogenous in cells; host or cells: DM93 (SILAC)
Procedure, shortened: as §1

P26358 = molecular target: T15, P26358 (Homo sapiens, UniProt P26358)
T15 construct: endogenous in cells; host or cells: DM93 (SILAC)
Procedure, shortened: as §1

O95453 = molecular target: T16, O95453 (Homo sapiens, UniProt O95453)
T16 construct: endogenous in cells; host or cells: DM93 cells (SILAC)
Procedure, shortened: as §1

O95260 = molecular target: T17, O95260 (Homo sapiens, UniProt O95260)
T17 construct: endogenous in cells; host or cells: DM93 cells (SILAC)
Procedure, shortened: as §1

P40939 = molecular target: T18, P40939 (Homo sapiens, UniProt P40939)
T18 construct: endogenous in cells; host or cells: DM93 cells (SILAC)
Procedure, shortened: as §1

T1 sequence (O94925 55-669): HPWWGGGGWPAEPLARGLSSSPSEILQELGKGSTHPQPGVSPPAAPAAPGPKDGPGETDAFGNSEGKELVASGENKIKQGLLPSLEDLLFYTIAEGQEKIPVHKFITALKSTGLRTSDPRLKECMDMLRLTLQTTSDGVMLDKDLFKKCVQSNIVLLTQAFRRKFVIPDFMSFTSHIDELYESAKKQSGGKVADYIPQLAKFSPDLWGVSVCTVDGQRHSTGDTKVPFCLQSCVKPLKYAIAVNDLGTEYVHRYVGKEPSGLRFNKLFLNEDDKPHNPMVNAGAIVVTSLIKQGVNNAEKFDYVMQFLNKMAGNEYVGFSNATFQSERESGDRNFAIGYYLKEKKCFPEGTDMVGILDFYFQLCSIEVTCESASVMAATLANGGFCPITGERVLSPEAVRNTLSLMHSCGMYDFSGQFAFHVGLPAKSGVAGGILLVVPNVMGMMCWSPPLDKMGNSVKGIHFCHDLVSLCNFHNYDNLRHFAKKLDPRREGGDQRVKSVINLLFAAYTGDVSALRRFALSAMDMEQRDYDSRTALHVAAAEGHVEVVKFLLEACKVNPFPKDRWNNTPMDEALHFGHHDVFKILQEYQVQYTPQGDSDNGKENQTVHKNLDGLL
T4 sequence (Q9BXS6 whole entry): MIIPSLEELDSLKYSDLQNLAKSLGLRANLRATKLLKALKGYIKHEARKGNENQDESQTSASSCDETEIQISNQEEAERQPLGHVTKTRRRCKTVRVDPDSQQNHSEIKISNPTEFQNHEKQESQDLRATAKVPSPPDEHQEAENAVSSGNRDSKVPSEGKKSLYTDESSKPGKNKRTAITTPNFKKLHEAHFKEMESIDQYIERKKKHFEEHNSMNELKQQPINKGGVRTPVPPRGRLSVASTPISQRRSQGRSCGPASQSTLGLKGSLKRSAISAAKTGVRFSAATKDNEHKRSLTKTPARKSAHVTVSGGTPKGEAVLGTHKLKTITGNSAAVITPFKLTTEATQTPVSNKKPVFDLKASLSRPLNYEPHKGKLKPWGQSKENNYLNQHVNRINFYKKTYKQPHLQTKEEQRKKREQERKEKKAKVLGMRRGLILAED
T9 sequence (O43660 whole entry): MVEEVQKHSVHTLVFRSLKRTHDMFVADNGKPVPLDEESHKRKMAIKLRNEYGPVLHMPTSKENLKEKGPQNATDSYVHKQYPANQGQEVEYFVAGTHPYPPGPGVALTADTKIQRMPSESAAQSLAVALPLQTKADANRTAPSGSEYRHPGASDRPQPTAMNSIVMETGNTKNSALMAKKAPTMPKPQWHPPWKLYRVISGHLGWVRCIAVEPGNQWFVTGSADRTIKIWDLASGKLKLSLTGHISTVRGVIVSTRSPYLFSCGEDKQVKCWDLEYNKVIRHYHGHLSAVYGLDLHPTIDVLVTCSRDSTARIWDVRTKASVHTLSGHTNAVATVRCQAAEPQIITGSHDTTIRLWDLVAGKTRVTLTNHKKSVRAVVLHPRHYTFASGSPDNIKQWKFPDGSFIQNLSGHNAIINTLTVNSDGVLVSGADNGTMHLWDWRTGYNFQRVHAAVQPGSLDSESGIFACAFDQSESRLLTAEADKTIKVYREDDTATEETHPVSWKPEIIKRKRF
T12 sequence (P18206 1-1066 isoform P18206-2): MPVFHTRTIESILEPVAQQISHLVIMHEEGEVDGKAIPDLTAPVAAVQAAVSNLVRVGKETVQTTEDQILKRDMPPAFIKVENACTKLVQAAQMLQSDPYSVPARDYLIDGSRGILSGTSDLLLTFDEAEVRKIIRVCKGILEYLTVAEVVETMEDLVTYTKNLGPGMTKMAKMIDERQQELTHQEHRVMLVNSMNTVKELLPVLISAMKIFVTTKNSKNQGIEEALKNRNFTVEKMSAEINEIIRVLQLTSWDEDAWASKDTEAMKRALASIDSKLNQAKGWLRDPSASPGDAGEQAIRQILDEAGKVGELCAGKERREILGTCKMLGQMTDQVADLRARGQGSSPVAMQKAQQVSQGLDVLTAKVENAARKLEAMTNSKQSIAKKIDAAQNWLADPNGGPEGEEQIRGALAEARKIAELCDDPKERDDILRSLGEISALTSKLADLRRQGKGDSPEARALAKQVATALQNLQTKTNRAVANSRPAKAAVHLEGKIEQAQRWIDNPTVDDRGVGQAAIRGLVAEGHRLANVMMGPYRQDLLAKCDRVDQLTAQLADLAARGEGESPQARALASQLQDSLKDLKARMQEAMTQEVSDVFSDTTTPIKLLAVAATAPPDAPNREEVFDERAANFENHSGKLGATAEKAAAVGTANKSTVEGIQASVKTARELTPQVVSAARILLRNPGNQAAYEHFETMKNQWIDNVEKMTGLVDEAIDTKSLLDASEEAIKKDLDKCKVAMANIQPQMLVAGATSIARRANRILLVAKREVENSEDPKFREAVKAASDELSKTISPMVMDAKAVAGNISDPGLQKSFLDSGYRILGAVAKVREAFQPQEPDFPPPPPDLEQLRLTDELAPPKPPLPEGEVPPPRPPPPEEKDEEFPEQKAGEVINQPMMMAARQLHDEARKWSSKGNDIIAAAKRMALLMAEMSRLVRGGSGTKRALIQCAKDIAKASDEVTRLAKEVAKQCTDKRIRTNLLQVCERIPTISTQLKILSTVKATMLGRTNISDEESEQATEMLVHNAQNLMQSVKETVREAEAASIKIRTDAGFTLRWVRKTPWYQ
T2 sequence (P28482 whole entry): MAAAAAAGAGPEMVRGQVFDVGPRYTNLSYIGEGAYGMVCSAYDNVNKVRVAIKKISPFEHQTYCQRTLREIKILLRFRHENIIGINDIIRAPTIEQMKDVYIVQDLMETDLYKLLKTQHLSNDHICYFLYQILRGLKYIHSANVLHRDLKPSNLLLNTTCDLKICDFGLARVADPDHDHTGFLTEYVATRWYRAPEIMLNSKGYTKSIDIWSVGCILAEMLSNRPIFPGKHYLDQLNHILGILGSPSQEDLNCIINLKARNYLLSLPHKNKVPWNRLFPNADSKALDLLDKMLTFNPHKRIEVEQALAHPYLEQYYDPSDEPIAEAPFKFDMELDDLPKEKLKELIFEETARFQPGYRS
T18 sequence (P40939 37-763): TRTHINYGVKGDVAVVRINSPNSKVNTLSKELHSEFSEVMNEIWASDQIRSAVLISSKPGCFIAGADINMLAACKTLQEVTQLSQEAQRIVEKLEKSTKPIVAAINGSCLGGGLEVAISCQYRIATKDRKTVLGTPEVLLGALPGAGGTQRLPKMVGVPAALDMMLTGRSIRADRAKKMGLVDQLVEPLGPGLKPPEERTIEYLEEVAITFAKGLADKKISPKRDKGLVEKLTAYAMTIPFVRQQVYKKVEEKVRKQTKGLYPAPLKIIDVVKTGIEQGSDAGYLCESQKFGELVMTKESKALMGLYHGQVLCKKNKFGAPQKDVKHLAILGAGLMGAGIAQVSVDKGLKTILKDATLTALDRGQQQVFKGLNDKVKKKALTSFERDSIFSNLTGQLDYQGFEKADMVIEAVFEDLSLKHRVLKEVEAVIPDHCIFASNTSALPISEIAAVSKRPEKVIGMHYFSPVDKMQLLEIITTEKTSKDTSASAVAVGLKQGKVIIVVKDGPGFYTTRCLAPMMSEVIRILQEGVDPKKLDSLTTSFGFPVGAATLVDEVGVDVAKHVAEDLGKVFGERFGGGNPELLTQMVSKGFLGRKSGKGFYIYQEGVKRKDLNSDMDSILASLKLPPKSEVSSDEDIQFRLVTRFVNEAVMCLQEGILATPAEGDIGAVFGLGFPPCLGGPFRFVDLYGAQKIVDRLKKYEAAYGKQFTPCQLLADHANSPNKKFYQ
T18 sequence (P55084 34-474 partner): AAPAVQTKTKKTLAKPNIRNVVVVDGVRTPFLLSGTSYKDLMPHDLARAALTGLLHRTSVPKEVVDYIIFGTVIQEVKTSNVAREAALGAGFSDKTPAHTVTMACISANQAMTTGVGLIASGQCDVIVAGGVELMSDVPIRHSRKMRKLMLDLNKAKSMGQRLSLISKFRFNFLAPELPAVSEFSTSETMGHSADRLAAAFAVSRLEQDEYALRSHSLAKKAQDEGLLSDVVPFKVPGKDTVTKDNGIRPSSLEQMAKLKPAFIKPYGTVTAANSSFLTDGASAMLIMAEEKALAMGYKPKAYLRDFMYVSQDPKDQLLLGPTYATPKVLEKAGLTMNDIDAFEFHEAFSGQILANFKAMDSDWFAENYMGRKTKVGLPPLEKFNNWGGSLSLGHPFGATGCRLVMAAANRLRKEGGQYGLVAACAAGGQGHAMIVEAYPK
T5 sequence (Q8NBF2 whole entry): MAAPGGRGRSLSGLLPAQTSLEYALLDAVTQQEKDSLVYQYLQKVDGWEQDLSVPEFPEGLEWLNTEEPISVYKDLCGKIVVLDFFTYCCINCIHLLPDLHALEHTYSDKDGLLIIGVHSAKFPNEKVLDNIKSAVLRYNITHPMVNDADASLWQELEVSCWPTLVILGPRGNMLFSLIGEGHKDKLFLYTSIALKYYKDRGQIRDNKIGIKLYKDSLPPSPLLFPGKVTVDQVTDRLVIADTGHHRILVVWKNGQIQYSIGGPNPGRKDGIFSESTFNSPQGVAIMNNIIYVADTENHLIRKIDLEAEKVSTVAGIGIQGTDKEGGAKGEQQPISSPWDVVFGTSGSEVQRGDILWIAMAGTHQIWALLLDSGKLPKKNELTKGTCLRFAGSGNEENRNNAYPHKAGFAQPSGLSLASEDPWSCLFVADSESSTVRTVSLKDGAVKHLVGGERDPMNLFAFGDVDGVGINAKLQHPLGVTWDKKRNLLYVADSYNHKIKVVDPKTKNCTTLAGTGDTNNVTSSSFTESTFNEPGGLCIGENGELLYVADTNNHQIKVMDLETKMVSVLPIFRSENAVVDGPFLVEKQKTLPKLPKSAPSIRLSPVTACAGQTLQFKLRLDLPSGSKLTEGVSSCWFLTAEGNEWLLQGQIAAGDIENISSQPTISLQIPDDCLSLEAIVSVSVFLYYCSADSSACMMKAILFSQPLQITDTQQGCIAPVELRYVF

SMILES: O=C(NC1CC1)c1ccc(S(=O)(=O)n2cncn2)cc1 [HHS-0101, 4-((1H-1,2,4-triazol-1-yl)sulfonyl)-N-cyclopropylbenzamide]
- liganded tyrosine site 145 (O94925): HHS0101.Y (tyrosine sites that showed >80% reductions (SR >5) in probe labeling in cells treated with compounds (liganded sites))
- liganded tyrosine site 304 (O94925): HHS0101.Y (tyrosine sites that showed >80% reductions (SR >5) in probe labeling in cells treated with compounds (liganded sites))
- liganded tyrosine site 113 (P28482): HHS0101.Y (tyrosine sites that showed >80% reductions (SR >5) in probe labeling in cells treated with compounds (liganded sites))
- liganded tyrosine site 361 (Q9Y5K6): HHS0101.Y|HHS0201.Y|HHS0401.Y (tyrosine sites that showed >80% reductions (SR >5) in probe labeling in cells treated with compounds (liganded sites))
- liganded tyrosine site 165 (Q9BXS6): HHS0101.Y (tyrosine sites that showed >80% reductions (SR >5) in probe labeling in cells treated with compounds (liganded sites))
- liganded tyrosine site 23 (Q8NBF2): HHS0101.Y (tyrosine sites that showed >80% reductions (SR >5) in probe labeling in cells treated with compounds (liganded sites))
- liganded tyrosine site 116 (Q96C86): HHS0101.Y|HHS0401.Y (tyrosine sites that showed >80% reductions (SR >5) in probe labeling in cells treated with compounds (liganded sites))
- liganded tyrosine site 19 (P25789): HHS0101.Y (tyrosine sites that showed >80% reductions (SR >5) in probe labeling in cells treated with compounds (liganded sites))
- liganded tyrosine site 66 (P25789): HHS0101.Y|HHS0201.Y|HHS0301.Y (tyrosine sites that showed >80% reductions (SR >5) in probe labeling in cells treated with compounds (liganded sites))
- liganded tyrosine site 38 (P62277): HHS0101.Y (tyrosine sites that showed >80% reductions (SR >5) in probe labeling in cells treated with compounds (liganded sites))

SMILES: O=C(NCC1CC1)c1ccc(S(=O)(=O)n2cncn2)cc1 [HHS-0201, 4-((1H-1,2,4-triazol-1-yl)sulfonyl)-N-(cyclopropylmethyl)benzamide]
- liganded tyrosine site 82 (O43660): HHS0201.Y (tyrosine sites that showed >80% reductions (SR >5) in probe labeling in cells treated with compounds (liganded sites))
- liganded tyrosine site 285 (O75521): HHS0201.Y|HHS0301.Y|HHS0401.Y (tyrosine sites that showed >80% reductions (SR >5) in probe labeling in cells treated with compounds (liganded sites))
- liganded tyrosine site 472 (P19174): HHS0201.Y (tyrosine sites that showed >80% reductions (SR >5) in probe labeling in cells treated with compounds (liganded sites))
- liganded tyrosine site 100 (P18206): HHS0201.Y|HHS0301.Y (tyrosine sites that showed >80% reductions (SR >5) in probe labeling in cells treated with compounds (liganded sites))

SMILES: O=C(NC1CCCCC1)c1ccc(S(=O)(=O)n2cncn2)cc1 [HHS-0301, 4-((1H-1,2,4-triazol-1-yl)sulfonyl)-N-cyclohexylbenzamide]
- liganded tyrosine site 9 (Q12965): HHS0301.Y (tyrosine sites that showed >80% reductions (SR >5) in probe labeling in cells treated with compounds (liganded sites))
- liganded tyrosine site 135 (P20618): HHS0301.Y (tyrosine sites that showed >80% reductions (SR >5) in probe labeling in cells treated with compounds (liganded sites))

SMILES: O=C(NCc1ccccc1)c1ccc(S(=O)(=O)n2cncn2)cc1 [HHS-0401, 4-((1H-1,2,4-triazol-1-yl)sulfonyl)-N-benzylbenzamide]
- liganded tyrosine site 367 (P26358): HHS0401.Y (tyrosine sites that showed >80% reductions (SR >5) in probe labeling in cells treated with compounds (liganded sites))
- liganded tyrosine site 161 (O95453): HHS0401.Y (tyrosine sites that showed >80% reductions (SR >5) in probe labeling in cells treated with compounds (liganded sites))
- liganded tyrosine site 63 (O95260): HHS0401.Y|HHS0701.Y (tyrosine sites that showed >80% reductions (SR >5) in probe labeling in cells treated with compounds (liganded sites))

SMILES: O=C(c1ccc(S(=O)(=O)n2cncn2)cc1)N1CCC(c2ccccc2)CC1 [HHS-0701, (4-((1H-1,2,4-triazol-1-yl)sulfonyl)phenyl)(4-phenylpiperidin-1-yl)methanone]
- liganded tyrosine site 343 (P40939): HHS0701.Y (tyrosine sites that showed >80% reductions (SR >5) in probe labeling in cells treated with compounds (liganded sites))
